Molecular target: mitochondrial ETC complex I (NADH-ubiquinone oxidoreductase) (Homo sapiens, UniProt O75251+O75306+P03886)
Experiment: Oxygen consumption
Type: cell-based

`CC(C)(O)[C@H]1CC[C@](C)([C@@H](O)CC[C@](C)(O)[C@H]2CC[C@H]3O[C@@H]([C@]4(C)CC[C@@H](Br)C(C)(C)O4)CC[C@]3(C)O2)O1` [compound 1, thyrsiferol] gave an IC50 of 3 µM.

From article PMC3139250 (Phytochemistry letters, 2011)
